Results published in ChEMBL document CHEMBL1201862, “PubChem BioAssay data set” (2004).
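Each compound was tested at five concentrations against cells in 96-well plates for 48 hours. GI50 = concentration required for 50% inhibition of growth.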 Calls of active or inactive are those of the source. Cut-off read from the data, not from the text of the source: active = GI50 up to about 1.1 µM and inactive = higher.

Tests used:
Assay in all cases: NCI-60 cell line screen, 48 h
[1] = tested on: SNB-19
[2] = tested on: OVCAR-4
[3] = tested on: KM12
[4] = tested on: MDA-N
[5] = tested on: NCI-H226
[6] = tested on: U-251
[7] = tested on: HCC 2998
[8] = tested on: HCT-15
[9] = tested on: UO-31
[10] = tested on: CAKI-1
[11] = tested on: M14
[12] = tested on: K562
[13] = tested on: SN12C
[14] = tested on: SF-295
[15] = tested on: SF-268
[16] = tested on: T47D
[17] = tested on: IGROV-1
[18] = tested on: 786-0
[19] = tested on: NCI/ADR-RES
[20] = tested on: COLO 205

SMILES | GI50 [1] | GI50 [2] | GI50 [3] | GI50 [4] | GI50 [5] | GI50 [6] | GI50 [7] | GI50 [8] [µM] | GI50 [9] | GI50 [10] | GI50 [11] | GI50 [12] | GI50 [13] | GI50 [14] | GI50 [15] | GI50 [16] | GI50 [17] | GI50 [18] | GI50 [19] | GI50 [20]
Nc1nc(=S)n(-c2ccc(Cl)cc2)c2nc3ccccc3cc12 | > 100 µM (inactive) | 46.7 µM (inactive) | 29.3 µM (inactive) | 90.8 µM (inactive) | 50.6 µM (inactive) | 48.9 µM (inactive) | 64.6 µM (inactive) | 39.9 | 33.6 µM (inactive) | 30.1 µM (inactive) | 84.9 µM (inactive) | 66.7 µM (inactive) | > 100 µM (inactive) | 64.6 µM (inactive) | 36.2 µM (inactive) | 18.7 µM (inactive) | 1.69 µM (inactive) | 53.3 µM (inactive) | > 100 µM (inactive) | 36 µM (inactive)
CCCC1=C(OC)C(=O)c2c(C)cc(Cl)nc2C1=O | 14.7 µM (inactive) | 6.37 µM (inactive) | 7.29 µM (inactive) | 1.73 µM (inactive) | 16.7 µM (inactive) | 6.07 µM (inactive) | 7.62 µM (inactive) | 3.05 | 13.5 µM (inactive) | 8.97 µM (inactive) | 7 µM (inactive) | 2.02 µM (inactive) | 4.14 µM (inactive) | 14.7 µM (inactive) | 7.08 µM (inactive) | 2.99 µM (inactive) | 11.7 µM (inactive) | 2.37 µM (inactive) | 4.55 µM (inactive) | 7.93 µM (inactive)
COC(=O)C1=C(OC)C(=P2(c3ccccc3)CC(c3ccccc3)=C2c2ccccc2)C(C(=O)OC)=C1C(=O)OC (stereo not given) | 67.1 µM (inactive) | 19.5 µM (inactive) | 27.5 µM (inactive) | 38 µM (inactive) | 68.9 µM (inactive) | 19.9 µM (inactive) | > 100 µM (inactive) | 11 | 14.9 µM (inactive) | 50.4 µM (inactive) | 43.5 µM (inactive) | 4.58 µM (inactive) | 31.8 µM (inactive) | > 76.6 µM (inactive) | > 61.1 µM (inactive) | 15.5 µM (inactive) | 22.2 µM (inactive) | 27.4 µM (inactive) | > 82.4 µM (inactive) | 18.8 µM (inactive)
CC1=NNC(=O)[C@H]2[C@H]1CCC1[C@@H]2CC[C@]2(C)[C@@H](O)CC[C@@H]12 (stereo not given in full) | > 100 µM (inactive) | > 100 µM (inactive) | > 100 µM (inactive) | > 100 µM (inactive) | > 100 µM (inactive) | > 100 µM (inactive) | > 100 µM (inactive) | > 100 | > 100 µM (inactive) | > 100 µM (inactive) | > 100 µM (inactive) | > 100 µM (inactive) | > 100 µM (inactive) | > 100 µM (inactive) | > 100 µM (inactive) | > 100 µM (inactive) | > 100 µM (inactive) | > 100 µM (inactive) | > 100 µM (inactive) | > 100 µM (inactive)
O=C(/C(=C\C(=O)c1cccs1)c1ccsc1)c1ccc(Br)cc1 | > 100 µM (inactive) | > 10 µM (inactive) | > 100 µM (inactive) | > 100 µM (inactive) | > 100 µM (inactive) | > 100 µM (inactive) | > 100 µM (inactive) | > 100 | > 100 µM (inactive) | > 100 µM (inactive) | > 100 µM (inactive) | > 100 µM (inactive) | > 100 µM (inactive) | > 100 µM (inactive) | > 100 µM (inactive) | 18.6 µM (inactive) | > 100 µM (inactive) | > 100 µM (inactive) | 88.5 µM (inactive) | > 100 µM (inactive)
Cn1c(=O)c2c(nc3sc4ccccc4c(=O)n32)n(C)c1=O | > 100 µM (inactive) | > 100 µM (inactive) | > 100 µM (inactive) | > 100 µM (inactive) | > 100 µM (inactive) | > 100 µM (inactive) | > 100 µM (inactive) | > 100 | > 100 µM (inactive) | > 100 µM (inactive) | > 100 µM (inactive) | > 100 µM (inactive) | > 100 µM (inactive) | > 100 µM (inactive) | > 100 µM (inactive) | > 100 µM (inactive) | > 100 µM (inactive) | > 100 µM (inactive) | > 100 µM (inactive) | > 100 µM (inactive)
CCc1c(-c2ccc(OC)cc2)c(=O)oc2cc(O)ccc12 | 56.1 µM (inactive) | 33.8 µM (inactive) | 37.2 µM (inactive) | 28.1 µM (inactive) | 56.6 µM (inactive) | 38.4 µM (inactive) | 72.3 µM (inactive) | 25.9 | 19.9 µM (inactive) | 39.3 µM (inactive) | 23.9 µM (inactive) | 29.8 µM (inactive) | 35.9 µM (inactive) | 35.6 µM (inactive) | 41.5 µM (inactive) | 30.6 µM (inactive) | 42.4 µM (inactive) | 51.2 µM (inactive) | 22.1 µM (inactive) | 28.2 µM (inactive)
O=c1[nH]c2nccn2c(Cl)c1Br | 27.7 µM (inactive) | 18 µM (inactive) | 95.1 µM (inactive) | 20 µM (inactive) | 35.2 µM (inactive) | 17.3 µM (inactive) | 21.1 µM (inactive) | 16.6 | 60 µM (inactive) | 22.4 µM (inactive) | 16.8 µM (inactive) | 19.6 µM (inactive) | 26.2 µM (inactive) | > 100 µM (inactive) | 23.2 µM (inactive) | 14.8 µM (inactive) | 20.3 µM (inactive) | 86.9 µM (inactive) | 22.9 µM (inactive) | 18.6 µM (inactive)
COC(=O)c1c(O)ccc2c1c1c(n2Cc2ccccc2)C(=O)c2ccccc2C1=O | 14.9 µM (inactive) | 12 µM (inactive) | 12.9 µM (inactive) | 20.1 µM (inactive) | 18.3 µM (inactive) | 13.9 µM (inactive) | 5.01 µM (inactive) | 12.6 | 10.3 µM (inactive) | 18.7 µM (inactive) | 20.4 µM (inactive) | 11.8 µM (inactive) | 13.9 µM (inactive) | 19.4 µM (inactive) | 14.8 µM (inactive) | 12.9 µM (inactive) | 12.6 µM (inactive) | 18.2 µM (inactive) | 12.6 µM (inactive) | 1.8 µM (inactive)
Cc1cc(C)c2c(=N)c3ccccc3n(CCCCCCCCn3c4ccccc4c(=N)c4c(C)cc(C)nc43)c2n1 | 0.282 µM (active) | 0.627 µM (active) | 0.358 µM (active) | 1.56 µM (inactive) | 1.55 µM (inactive) | 0.553 µM (active) | 0.631 µM (active) | 0.2 | 1.46 µM (inactive) | 1.7 µM (inactive) | 1.66 µM (inactive) | 0.19 µM (active) | 1.59 µM (inactive) | 1.5 µM (inactive) | 1.74 µM (inactive) | 1.77 µM (inactive) | 1.33 µM (inactive) | 0.931 µM (active) | 1.6 µM (inactive) | 1.47 µM (inactive)
C/C(=N\NC(=S)NC1CCCC1)c1ccccn1 | 1.05 µM (active) | 0.135 µM (active) | 0.0708 µM (active) | 0.165 µM (active) | 0.0416 µM (active) | 0.0753 µM (active) | 0.515 µM (active) | < 0.01 | < 0.026 µM (active) | < 0.01 µM (active) | < 0.01 µM (active) | < 0.01 µM (active) | 0.299 µM (active) | 0.223 µM (active) | 0.569 µM (active) | < 0.01 µM (active) | < 0.01 µM (active) | 0.0467 µM (active) | < 0.01 µM (active) | < 0.01 µM (active)
